Measured values taken from US8329717B2, “Pyrimidine derivatives and their use for controlling undesired plant growth” (Bayer Cropscience AG, priority 2008, dated 2012).

How the values were obtained:
Echinochloa crus-galli [1] = assay: Pre-emergence herbicidal effect; format: in vivo; details: Dosage 320 g/ha, visual scoring after 3 weeks vs untreated controls, 100% = plants have died
From the text: (§1) 1. Pre-Emergence Herbicidal Effect and Crop Plant Compatibility Seeds of monocotyledonous or dicotyledonous weed plants or crop plants are planted in wood-fiber pots in sandy loam and covered with earth. The compounds according to the invention, formulated in the form of wettable powders (WP) or as emulsion concentrates (EC), are then applied as aqueous suspension or emulsion at a water application rate of 600 to 800 l/ha (converted) with the addition of 0.2% of wetting agent to the surface of the covering earth. The dosage of the compounds according to the invention is given in grams per hectare. Following the treatment, the pots are placed in a greenhouse and kept under good growth conditions for the test plants. The visual scoring of the damage on the test plants is carried out after an experiment time of 3 weeks in comparison with untreated controls (herbicidal effect in percent (%): 100% effect=plants have died, 0% effect=as control plants). The following abbreviations are used in the tables below: [table]

Alopecurus myosuroides = assay: Pre-emergence herbicidal effect; format: in vivo; details: Dosage 320 g/ha, visual scoring after 3 weeks vs untreated controls, 100% = plants have died
From the text: as §1

Stellaria media [2] = assay: Pre-emergence herbicidal effect; format: in vivo; details: Dosage 320 g/ha, visual scoring after 3 weeks vs untreated controls, 100% = plants have died
From the text: as §1

Matricaria inodora = assay: Pre-emergence herbicidal effect; format: in vivo; details: Dosage 320 g/ha, visual scoring after 3 weeks vs untreated controls, 100% = plants have died
From the text: as §1

Amaranthus retroflexus [3] = assay: Pre-emergence herbicidal effect; format: in vivo; details: Dosage 320 g/ha, visual scoring after 3 weeks vs untreated controls, 100% = plants have died
From the text: as §1

Polygonum convolvulus = assay: Pre-emergence herbicidal effect; format: in vivo; details: Dosage 320 g/ha, visual scoring after 3 weeks vs untreated controls, 100% = plants have died
From the text: as §1

Viola tricolor [4] = assay: Pre-emergence herbicidal effect; format: in vivo; details: Dosage 320 g/ha, visual scoring after 3 weeks vs untreated controls, 100% = plants have died
From the text: as §1

Setaria viridis [5] = assay: Pre-emergence herbicidal effect; format: in vivo; details: Dosage 320 g/ha, visual scoring after 3 weeks vs untreated controls, 100% = plants have died
From the text: as §1

Lolium multiflorum [6] = assay: Pre-emergence herbicidal effect; format: in vivo; details: Dosage 320 g/ha, visual scoring after 3 weeks vs untreated controls, 100% = plants have died
From the text: as §1

Veronica persica [7] = assay: Pre-emergence herbicidal effect; format: in vivo; details: Dosage 320 g/ha, visual scoring after 3 weeks vs untreated controls, 100% = plants have died
From the text: as §1

Abutilon theophrasti = assay: Post-emergence herbicidal effect; format: in vivo; details: Dosage 320 g/ha, one-leaf stage, visual scoring after ca. 3 weeks vs untreated controls, 100% = plants have died
Method: (§2) The following abbreviations are used in the tables below: [table] 2. Post-Emergence Herbicidal Effect and Crop Plant Compatibility Seeds of monocotyledonous or dicotyledonous weed plants or crop plants are planted in wood-fiber pots in sandy loam, covered with earth and grown in a greenhouse under good growth conditions. 2 to 3 weeks after sowing, the test plants are treated in the one-leaf stage. The compounds according to the invention, formulated in the form of wettable powders (WP) or as emulsion concentrates (EC), are then sprayed onto the green plant parts as aqueous suspension or emulsion at a water application rate of 600 to 800 l/ha (converted) with the addition of 0.2% of wetting agent. The dosage of the compounds according to the invention is given in grams per hectare. After ca. 3 weeks' standing time of the test plants in the greenhouse under optimum growth conditions, the effect of the preparations is scored visually in comparison with untreated controls (herbicidal effect in percent (%): 100% effect=plants have died, 0% effect=as control plants).

Stellaria media [8] = assay: Post-emergence herbicidal effect; format: in vivo; details: Dosage 320 g/ha, one-leaf stage, visual scoring after ca. 3 weeks vs untreated controls, 100% = plants have died
Method: as §2

Amaranthus retroflexus [9] = assay: Post-emergence herbicidal effect; format: in vivo; details: Dosage 320 g/ha, one-leaf stage, visual scoring after ca. 3 weeks vs untreated controls, 100% = plants have died
Method: as §2

Viola tricolor [10] = assay: Post-emergence herbicidal effect; format: in vivo; details: Dosage 320 g/ha, one-leaf stage, visual scoring after ca. 3 weeks vs untreated controls, 100% = plants have died
Method: as §2

Setaria viridis [11] = assay: Post-emergence herbicidal effect; format: in vivo; details: Dosage 320 g/ha, one-leaf stage, visual scoring after ca. 3 weeks vs untreated controls, 100% = plants have died
Method: as §2

Veronica persica [12] = assay: Post-emergence herbicidal effect; format: in vivo; details: Dosage 320 g/ha, one-leaf stage, visual scoring after ca. 3 weeks vs untreated controls, 100% = plants have died
Method: as §2

Avena fatua = assay: Pre-emergence herbicidal effect; format: in vivo; details: Dosage 320 g/ha, visual scoring after 3 weeks vs untreated controls, 100% = plants have died
From the text: as §1

[13] = logp (HCOOH), chemicophysical data; details: HCOOH
Echinochloa crus-galli [14] = assay: Post-emergence herbicidal effect; format: in vivo; details: Dosage 320 g/ha, one-leaf stage, visual scoring after ca. 3 weeks vs untreated controls, 100% = plants have died
Method: as §2

Lolium multiflorum [15] = assay: Post-emergence herbicidal effect; format: in vivo; details: Dosage 320 g/ha, one-leaf stage, visual scoring after ca. 3 weeks vs untreated controls, 100% = plants have died
Method: as §2

Compound: Cc1nc(NC2CCOc3ccccc32)nc(N)c1[N+](=O)[O-] (racemic) [Example 1.121]
- Pre-emergence herbicidal effect ECHCG (Echinochloa crus-galli [1]): 100%
- Pre-emergence herbicidal effect ALOMY (Alopecurus myosuroides): 80%
- Pre-emergence herbicidal effect STEME (Stellaria media [2]): 100%
- Pre-emergence herbicidal effect MATIN (Matricaria inodora): 100%
- Pre-emergence herbicidal effect AMARE (Amaranthus retroflexus [3]): 100%
- Pre-emergence herbicidal effect POLCO (Polygonum convolvulus): 100%
- Pre-emergence herbicidal effect VIOTR (Viola tricolor [4]): 100%
- Pre-emergence herbicidal effect SETVI (Setaria viridis [5]): 100%
- Pre-emergence herbicidal effect LOLMU (Lolium multiflorum [6]): 90%
- Pre-emergence herbicidal effect VERPE (Veronica persica [7]): 100%

Compound: Cc1nc(NC2CCCc3ccccc32)nc(N)c1[N+](=O)[O-] (racemic) [Example 1.124]
- Pre-emergence herbicidal effect STEME (Stellaria media [2]): 100%
- Pre-emergence herbicidal effect MATIN (Matricaria inodora): 90%
- Pre-emergence herbicidal effect AMARE (Amaranthus retroflexus [3]): 100%
- Pre-emergence herbicidal effect POLCO (Polygonum convolvulus): 90%
- Pre-emergence herbicidal effect VIOTR (Viola tricolor [4]): 100%
- Pre-emergence herbicidal effect SETVI (Setaria viridis [5]): 80%
- Pre-emergence herbicidal effect VERPE (Veronica persica [7]): 100%

Compound: Cc1nc(NC2c3ccccc3CC2C)nc(N)c1[N+](=O)[O-] (racemic) [Example 1.125]
- Pre-emergence herbicidal effect ECHCG (Echinochloa crus-galli [1]): 90%
- Pre-emergence herbicidal effect ALOMY (Alopecurus myosuroides): 80%
- Pre-emergence herbicidal effect STEME (Stellaria media [2]): 100%
- Pre-emergence herbicidal effect MATIN (Matricaria inodora): 95%
- Pre-emergence herbicidal effect AMARE (Amaranthus retroflexus [3]): 90%
- Pre-emergence herbicidal effect POLCO (Polygonum convolvulus): 90%
- Pre-emergence herbicidal effect VIOTR (Viola tricolor [4]): 100%
- Pre-emergence herbicidal effect SETVI (Setaria viridis [5]): 90%
- Pre-emergence herbicidal effect VERPE (Veronica persica [7]): 100%

Compound: Cc1ccc2c(c1)[C@H](Nc1nc(C)c(I)c(N)n1)[C@@H](C)C2 [Example 1.46]
- Post-emergence herbicidal effect ABUTH (Abutilon theophrasti): 100%
- Post-emergence herbicidal effect STEME (Stellaria media [8]): 90%
- Post-emergence herbicidal effect AMARE (Amaranthus retroflexus [9]): 100%
- Post-emergence herbicidal effect VIOTR (Viola tricolor [10]): 90%
- Post-emergence herbicidal effect SETVI (Setaria viridis [11]): 90%
- Post-emergence herbicidal effect VERPE (Veronica persica [12]): 90%
- Pre-emergence herbicidal effect ALOMY (Alopecurus myosuroides): 80%
- Pre-emergence herbicidal effect STEME (Stellaria media [2]): 100%
- Pre-emergence herbicidal effect MATIN (Matricaria inodora): 100%
- Pre-emergence herbicidal effect AMARE (Amaranthus retroflexus [3]): 100%
- Pre-emergence herbicidal effect POLCO (Polygonum convolvulus): 100%
- Pre-emergence herbicidal effect VIOTR (Viola tricolor [4]): 100%
- Pre-emergence herbicidal effect SETVI (Setaria viridis [5]): 100%
- Pre-emergence herbicidal effect LOLMU (Lolium multiflorum [6]): 100%
- Pre-emergence herbicidal effect VERPE (Veronica persica [7]): 100%
- Pre-emergence herbicidal effect AVEFA (Avena fatua): 80%
- logp (HCOOH) [13]: wax-like; logp (HCOOH): 1.39; 1H-NMR (CDCl3, 400 MHZ, δ in ppm): 1.25 (d, 3H, CH3);

Compound: CCc1nc(N[C@H]2c3cc(C)ccc3C[C@@H]2C)nc(N)c1C#N [Example 1.61]
- Post-emergence herbicidal effect ECHCG (Echinochloa crus-galli [14]): 90%
- Post-emergence herbicidal effect ABUTH (Abutilon theophrasti): 80%
- Post-emergence herbicidal effect STEME (Stellaria media [8]): 90%
- Post-emergence herbicidal effect VIOTR (Viola tricolor [10]): 80%
- Post-emergence herbicidal effect VERPE (Veronica persica [12]): 90%
- Pre-emergence herbicidal effect ECHCG (Echinochloa crus-galli [1]): 100%
- Pre-emergence herbicidal effect ALOMY (Alopecurus myosuroides): 100%
- Pre-emergence herbicidal effect STEME (Stellaria media [2]): 100%
- Pre-emergence herbicidal effect MATIN (Matricaria inodora): 90%
- Pre-emergence herbicidal effect AMARE (Amaranthus retroflexus [3]): 100%
- Pre-emergence herbicidal effect POLCO (Polygonum convolvulus): 100%
- Pre-emergence herbicidal effect VIOTR (Viola tricolor [4]): 100%
- Pre-emergence herbicidal effect SETVI (Setaria viridis [5]): 90%
- Pre-emergence herbicidal effect VERPE (Veronica persica [7]): 100%
- Pre-emergence herbicidal effect AVEFA (Avena fatua): 90%
- logp (HCOOH) [13]: solid, m.p.: 126.9° C.; logp (HCOOH): 3.07; 1H-NMR (CDCl3, 400 MHZ, δ in ppm): 1.25

Compound: CCc1nc(N[C@@H]2CCCc3ccccc32)nc(N)c1C#N [Example 1.63]
- Post-emergence herbicidal effect ECHCG (Echinochloa crus-galli [14]): 80%
- Post-emergence herbicidal effect STEME (Stellaria media [8]): 80%
- Post-emergence herbicidal effect SETVI (Setaria viridis [11]): 80%
- Post-emergence herbicidal effect VERPE (Veronica persica [12]): 80%
- Pre-emergence herbicidal effect ECHCG (Echinochloa crus-galli [1]): 100%
- Pre-emergence herbicidal effect ALOMY (Alopecurus myosuroides): 100%
- Pre-emergence herbicidal effect STEME (Stellaria media [2]): 100%
- Pre-emergence herbicidal effect MATIN (Matricaria inodora): 100%
- Pre-emergence herbicidal effect AMARE (Amaranthus retroflexus [3]): 90%
- Pre-emergence herbicidal effect POLCO (Polygonum convolvulus): 100%
- Pre-emergence herbicidal effect VIOTR (Viola tricolor [4]): 100%
- Pre-emergence herbicidal effect SETVI (Setaria viridis [5]): 100%
- Pre-emergence herbicidal effect VERPE (Veronica persica [7]): 100%
- Pre-emergence herbicidal effect AVEFA (Avena fatua): 80%
- logp (HCOOH) [13]: wax-like; logp (HCOOH): 2.49; 1H-NMR (CDCl3, 400 MHZ, δ in ppm): 1.25 (t, 3H, CH3);

Compound: Cc1ccc2c(c1)[C@H](Nc1nc(N)c(C#N)c(C3(c4ccc(Cl)cc4Cl)CC3)n1)[C@@H](C)C2 [Example 1.94]
- Pre-emergence herbicidal effect ECHCG (Echinochloa crus-galli [1]): 90%
- Pre-emergence herbicidal effect ALOMY (Alopecurus myosuroides): 80%
- Pre-emergence herbicidal effect STEME (Stellaria media [2]): 100%
- Pre-emergence herbicidal effect MATIN (Matricaria inodora): 85%
- Pre-emergence herbicidal effect AMARE (Amaranthus retroflexus [3]): 90%
- Pre-emergence herbicidal effect POLCO (Polygonum convolvulus): 80%
- Pre-emergence herbicidal effect VIOTR (Viola tricolor [4]): 100%
- Pre-emergence herbicidal effect SETVI (Setaria viridis [5]): 90%
- Pre-emergence herbicidal effect LOLMU (Lolium multiflorum [6]): 80%
- Pre-emergence herbicidal effect VERPE (Veronica persica [7]): 100%
- Pre-emergence herbicidal effect AVEFA (Avena fatua): 80%
- logp (HCOOH) [13]: wax-like; logp (HCOOH): 5.55; 1H-NMR (CDCl3, 400 MHZ, δ in ppm): 1.25 (d, 3H, CH3);

Compound: Nc1nc(N[C@@H]2CCCc3ccccc32)ncc1Br [Example 1.97]
- Post-emergence herbicidal effect ECHCG (Echinochloa crus-galli [14]): 80%
- Post-emergence herbicidal effect STEME (Stellaria media [8]): 80%
- Post-emergence herbicidal effect AMARE (Amaranthus retroflexus [9]): 80%
- Post-emergence herbicidal effect SETVI (Setaria viridis [11]): 80%
- Post-emergence herbicidal effect LOLMU (Lolium multiflorum [15]): 80%
- Post-emergence herbicidal effect VERPE (Veronica persica [12]): 80%
- Pre-emergence herbicidal effect ECHCG (Echinochloa crus-galli [1]): 100%
- Pre-emergence herbicidal effect ALOMY (Alopecurus myosuroides): 80%
- Pre-emergence herbicidal effect STEME (Stellaria media [2]): 100%
- Pre-emergence herbicidal effect MATIN (Matricaria inodora): 100%
- Pre-emergence herbicidal effect AMARE (Amaranthus retroflexus [3]): 100%
- Pre-emergence herbicidal effect VIOTR (Viola tricolor [4]): 100%
- Pre-emergence herbicidal effect SETVI (Setaria viridis [5]): 100%
- Pre-emergence herbicidal effect LOLMU (Lolium multiflorum [6]): 100%
- Pre-emergence herbicidal effect VERPE (Veronica persica [7]): 100%
